Read-outs that look alike come from different tables or passages of the source.
How the values were obtained:
[1] = XRPD FWHM of the peak at 8.7±0.2° 2θ (degree of crystal imperfections), method 1; assay type: physicochemical; settings: for FWHM (automatic mode), XRPD peak around 8.7 ± 0.2° 2θ, Before: before heat treatment
Experimental: (§1) XRPD was performed using a Malvern Panalytical Empyrean diffractometer at ambient conditions. The diffraction pattern was measured at room temperature using an Empyrean Cu LFF HR (45 kV/40 mA) source and PIXcel3D-Medipix3 1×1 detector. The measurement was performed in the range of 2-40° 20 using a scan speed of 0.067335° 2θ/s and a step size of 0.0262606° 2θ. The samples were measured in transmission mode and with a spinner revolution time of 1 second. Approximately 200 mg of sample were placed between two sheets of Kapton Polyimide Thin-film. The measurements were performed using a Soller slit of 0.04 radians and a fixed divergence slit of 0.5° on the incident beam, and a 3 mm Anti scatter slit and a Soller slit of 0.04 radians in the diffracted beam.
The degree of crystal imperfections was assessed by use of the FWHM as more crystal imperfections might cause peak broadening and lower peak height, which leads to higher FWHM values due to fewer lattice planes with identical orientation contributing to the diffraction peak. Oppositely, in the absence of crystal imperfections, lattice planes with identical orientation increase and result in narrower and higher diffraction peaks leading to smaller FWHM values. The FWHM was calculated using the characteristic peak at 8.7±0.2° 2θ by finding the apex of the peak and measuring the height of the peak applying the x-axis as the baseline (automatic mode) (see FIG. 11) or applying a baseline spanning the two surrounding troughs (manual mode) (see FIG. 12). This value is then divided in half to find the half height. Hereafter the width of the peak at that half height is measured and reported in ° 2θ. Alternatively, the peak at 6.0±0.2° 2θ may also be used to calculate the FWHM.
(§2) Samples from a batch of SNAC polymorphic form A (Batch 5) with a FWHM of 0.97° 2θ (automatic mode) and a moisture uptake of 1.98% at 65% RH from the beginning were heated to 90, 100, 110, 120, 130, and 140° C., respectively, in a tray oven. The samples were exposed to their respective temperatures for up to 72 h. The sample size was small enough to ensure that the samples equilibrated completely, within a few of minutes, to the oven temperature. Samples were taken during the 72 h of elevated temperature exposure and subjected to XRPD measurements in accordance with method 1 to determine the polymorphic form and impact on crystal imperfections using FWHM with the x-axis as the baseline (automatic mode).
(§3) Samples from different batches of SNAC polymorphic form A were subjected to a heat treatment in a tray oven and the sample size was small enough to ensure that the samples equilibrated completely and within a couple of minutes to the oven temperature. Samples were taken from the batches before the heat treatment and after the heat treatment and subjected to XRPD measurements in accordance with method 1 to determine the polymorphic form and impact on crystal imperfections using FWHM with the x-axis as the baseline (auto mode). Furthermore, samples were also subjected to DVS measurements in accordance with method 3 to determine the impact of the heat treatment on the hygroscopicity.

[2] = Dynamic vapour sorption (DVS) moisture uptake, method 3; assay type: physicochemical; settings: for Moisture absorption at 65% RH, Before: before heat treatment
Experimental: Moisture sorption/desorption data were measured by a Dynamic Vapour Sorption Advantage 1 from Surface Measurement Systems. Prior to analysis the samples were dried for up to about 48 h in desiccators containing phosphorus pentoxide. Approximately 20 mg of sample was placed into a balance pan and loaded into the instrument and the sample was then further dried for a minimum of 500 min in the instrument at 0% RH using a nitrogen purge. The resulting sample weight after the further drying was assigned as the 0% start weight and all weight gains and losses was calculated relative to this start weight. Sorption and desorption isotherms were collected over a range from 0 to 90% relative humidity (RH) using a nitrogen purge at 25° C. The threshold for equilibrium used for analysis was 0.002 to 0.0005 dm/dt.
Furthermore, samples were taken after 24 h of exposure at the indicated elevated temperatures and were subjected to dynamic vapor sorption measurements in accordance with method 3 to determine the hygroscopicity. The moisture uptake was measured at 65% RH. The hygroscopicity is decreased as the moisture absorbed at 65% RH decreases when exposing SNAC polymorphic form A to elevated temperatures for 24 h.

[3] = Polymorphic form determined by XRPD, method 1; assay type: physicochemical; settings: after heat treatment 150° C. for 1 h
Experimental: as §1
The polymorphic form of the sample was determined by comparison of the diffractogram obtained for the sample with reference diffractograms for the SNAC polymorphs and solvates.
as §2, §3

[4] = XRPD with moisture chamber: relative humidity for onset of conversion of form A to trihydrate form F, method 2; assay type: physicochemical; settings: increasing RH at ambient conditions
From the text: The moisture chamber allows for controlling the humidity and temperature of the samples during XRPD measurements.
Samples from different batches of SNAC polymorphic form A were subjected to increasing levels of relative humidity at ambient conditions inside a humidity chamber with the possibility of simultaneous determination of the polymorphic form in accordance with the XRPD method 2. The diffractograms were visually inspected for the appearance of characteristic diffraction peaks for the SNAC polymorphic form F in order to determine at which relative humidity polymorphic conversion of form A to F started.

[5] = Dynamic vapour sorption (DVS) moisture uptake, method 3; assay type: physicochemical; settings: not ground
[6] = heat treatment: None; derived from example 1 and figures of WO 2005/107462; cited from earlier work
[7] = heat treatment: None; derived from example 1 and figures of WO 2005/107462; cited from earlier work; remark: listed apart in the source
[8] = after heat treatment 115° C. for 24 h
[9] = after heat treatment 150° C. for 1 h
[10] = after heat treatment 120° C. for 20 h
[11] = after heat treatment 120° C. for 24 h
[12] = heat treatment 115° C. for 24 h
[13] = ground in a mortar with pestle for about 10 min
[14] = made per example 2 of WO 2008/028859, after drying at 90° C. for 18 h

Row | Compound | FWHM (automatic mode), XRPD peak around 8.7 ± 0.2° 2θ, Before [1] | Moisture absorption at 65% RH, Before [2] | FWHM (manual mode) ([1]; heat treatment: None) | Moisture absorption at 65% RH ([2]; heat treatment: None) | Onset of trihydrate conversion (form A to form F) ([4]; heat treatment: None) | other results
1 | O=C([O-])CCCCCCCNC(=O)c1ccccc1O.[Na+] [Batch 1, monosodium N-[8-(2-hydroxybenzoyl)-amino]caprylate] | 1.08 ° 2θ | 2.66% |  |  |  | FWHM (automatic mode), XRPD peak around 8.7 ± 0.2° 2θ, After [1, 8]: 0.60 ° 2θ; Moisture absorption at 65% RH, After [2, 8]: 1.26%
2 | O=C([O-])CCCCCCCNC(=O)c1ccccc1O.[Na+] [Batch 2, monosodium N-[8-(2-hydroxybenzoyl)-amino]caprylate] | 1.21 ° 2θ | 2.90% | 0.84 °2θ | 2.90% | 70 % RH | FWHM (automatic mode), XRPD peak around 8.7 ± 0.2° 2θ, After [1, 9]: 0.42 ° 2θ; Polymorphic form, After [3]: A & B; Moisture absorption at 65% RH, After [2, 9]: 1.04%
3 | O=C([O-])CCCCCCCNC(=O)c1ccccc1O.[Na+] [Batch 3, monosodium N-[8-(2-hydroxybenzoyl)-amino]caprylate] |  |  | 0.66 °2θ | 1.95% | 75 % RH | 
4 | O=C([O-])CCCCCCCNC(=O)c1ccccc1O.[Na+] [Batch 4, monosodium N-[8-(2-hydroxybenzoyl)-amino]caprylate] | 0.79 ° 2θ | 0.83% |  |  |  | FWHM (automatic mode), XRPD peak around 8.7 ± 0.2° 2θ, After [1, 10]: 0.58 ° 2θ; Moisture absorption at 65% RH, After [2, 10]: 0.84%
5 | O=C([O-])CCCCCCCNC(=O)c1ccccc1O.[Na+] [Batch 5, monosodium N-[8-(2-hydroxybenzoyl)-amino]caprylate] | 0.97 ° 2θ | 1.98% |  |  |  | FWHM (automatic mode), XRPD peak around 8.7 ± 0.2° 2θ, After [1, 11]: 0.58 ° 2θ; Moisture absorption at 65% RH, After [2, 11]: 0.94%
6 | O=C([O-])CCCCCCCNC(=O)c1ccccc1O.[Na+] [Batch 6, monosodium N-[8-(2-hydroxybenzoyl)-amino]caprylate] |  |  | 0.65 °2θ | 1.81% | 75 % RH | 
7 | O=C([O-])CCCCCCCNC(=O)c1ccccc1O.[Na+] [Batch 7, monosodium N-[8-(2-hydroxybenzoyl)-amino]caprylate] |  |  | 0.61 °2θ | 2.06% | 70 % RH | 
8 | O=C([O-])CCCCCCCNC(=O)c1ccccc1O.[Na+] [Batch 8, monosodium N-[8-(2-hydroxybenzoyl)-amino]caprylate] |  |  | 0.82 °2θ | 2.51% | 70 % RH | FWHM (manual mode) [1, 12]: 0.47 °2θ; Moisture absorption at 65% RH [2, 12]: 0.99%; Onset of trihydrate conversion (form A to form F) [4, 12]: 80 % RH
9 | O=C([O-])CCCCCCCNC(=O)c1ccccc1O.[Na+] [Batch 9, monosodium N-[8-(2-hydroxybenzoyl)-amino]caprylate] |  |  | 0.60 °2θ | 1.29% | 80 % RH | FWHM (manual mode) [1, 12]: 0.52 °2θ; Moisture absorption at 65% RH [2, 12]: 0.98%; Onset of trihydrate conversion (form A to form F) [4, 12]: 80 % RH
10 | O=C([O-])CCCCCCCNC(=O)c1ccccc1O.[Na+] [Batch 10, monosodium N-[8-(2-hydroxybenzoyl)-amino]caprylate] |  |  |  |  |  | FWHM (auto mode) [1, 13]: 1.00 °2θ; FWHM (auto mode) ([1]; not ground): 0.79 °2θ; Moisture absorption at 60% RH [2, 13]: 2.99%; Moisture absorption at 60% RH [5]: 1.19%
11 | O=C([O-])CCCCCCCNC(=O)c1ccccc1O.[Na+] [Batch 11, monosodium N-[8-(2-hydroxybenzoyl)-amino]caprylate, reference compound] |  |  |  |  |  | FWHM (auto mode) [1, 14]: 1.12 °2θ; Moisture absorption at 65% RH [2, 14]: 2.62%
12 | O=C([O-])CCCCCCCNC(=O)c1ccccc1O.[Na+] [Batch X, monosodium N-[8-(2-hydroxybenzoyl)-amino]caprylate] |  |  |  |  |  | FWHM (manual mode) [6]: 0.90 °2θ; Moisture absorption at 65% RH [7]: 1.50%

From patent US20240294466A1, “SODIUM N-(8-(2- HYDROXYBENZOYL)AMINO)CAPRYLATE P[…] A” (Novo Nordisk A/S, priority 2021, published 2024)
